In patent US10245261B2, “Substituted indol-5-ol derivatives and their therapeutic applications” (NantBioScience, Inc., priority 2013, dated 2019):

Columns and labels:
Assay in all cases: KinaseProfiler kinase assay
Format in all cases: biochemical
[1] = molecular target: Blk(h) (Homo sapiens, UniProt P51451)
How it was run: (§1)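 Buffer 20 mM MOPS, 1 mM EDTA, 0.01% Brij-35, 5% glycerol, 0.1% β-mercaptoethanol, 1 mg/mL BSA for compound dilution; reaction at pH 7.0 with [γ-33P]ATP, 40 min RT; filtermat/scintillation read-out; 0%/100% set by no-kinase and phosphopeptide wells.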

[2] = molecular target: CaMKIIβ(h) (Homo sapiens, UniProt Q13554)
How it was run: as §1

[3] = molecular target: Hck(h) (Homo sapiens, UniProt P08631)
How it was run: as §1

[4] = molecular target: MAPK2(m) (Mus musculus, UniProt P63085)
How it was run: as §1

[5] = molecular target: PI3 Kinase (p110α(E542K)/p85α)(m) (Mus musculus, UniProt P42337, E542K)
How it was run: as §1

[6] = molecular target: MST2(h) (Homo sapiens, UniProt Q13188)
Sequence of MST2(h) (Q13188 whole entry): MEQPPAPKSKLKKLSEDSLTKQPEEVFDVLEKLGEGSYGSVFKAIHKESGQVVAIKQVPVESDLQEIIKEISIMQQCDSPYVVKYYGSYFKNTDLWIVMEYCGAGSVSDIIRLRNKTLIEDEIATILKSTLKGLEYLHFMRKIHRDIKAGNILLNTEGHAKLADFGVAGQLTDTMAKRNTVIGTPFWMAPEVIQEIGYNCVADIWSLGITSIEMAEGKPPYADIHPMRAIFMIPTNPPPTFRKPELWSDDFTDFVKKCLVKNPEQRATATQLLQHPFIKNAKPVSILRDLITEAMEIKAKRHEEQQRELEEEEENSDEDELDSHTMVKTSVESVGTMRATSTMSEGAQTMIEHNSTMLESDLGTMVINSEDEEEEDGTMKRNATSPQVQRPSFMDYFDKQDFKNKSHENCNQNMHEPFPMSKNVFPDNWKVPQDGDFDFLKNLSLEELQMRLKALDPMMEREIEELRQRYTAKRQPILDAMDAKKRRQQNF
How it was run: as §1

[7] = molecular target: CLK3(h) (Homo sapiens, UniProt P49761)
How it was run: as §1

[8] = molecular target: PASK(h) (Homo sapiens, UniProt Q96RG2)
How it was run: as §1

[9] = molecular target: Haspin(h) (Homo sapiens, UniProt Q8TF76)
How it was run: as §1

[10] = molecular target: MLK1(h) (Homo sapiens, UniProt P80192)
How it was run: as §1

[11] = molecular target: Pyk2(h) (Homo sapiens, UniProt Q14289)
Sequence of Pyk2(h) (Q14289 whole entry): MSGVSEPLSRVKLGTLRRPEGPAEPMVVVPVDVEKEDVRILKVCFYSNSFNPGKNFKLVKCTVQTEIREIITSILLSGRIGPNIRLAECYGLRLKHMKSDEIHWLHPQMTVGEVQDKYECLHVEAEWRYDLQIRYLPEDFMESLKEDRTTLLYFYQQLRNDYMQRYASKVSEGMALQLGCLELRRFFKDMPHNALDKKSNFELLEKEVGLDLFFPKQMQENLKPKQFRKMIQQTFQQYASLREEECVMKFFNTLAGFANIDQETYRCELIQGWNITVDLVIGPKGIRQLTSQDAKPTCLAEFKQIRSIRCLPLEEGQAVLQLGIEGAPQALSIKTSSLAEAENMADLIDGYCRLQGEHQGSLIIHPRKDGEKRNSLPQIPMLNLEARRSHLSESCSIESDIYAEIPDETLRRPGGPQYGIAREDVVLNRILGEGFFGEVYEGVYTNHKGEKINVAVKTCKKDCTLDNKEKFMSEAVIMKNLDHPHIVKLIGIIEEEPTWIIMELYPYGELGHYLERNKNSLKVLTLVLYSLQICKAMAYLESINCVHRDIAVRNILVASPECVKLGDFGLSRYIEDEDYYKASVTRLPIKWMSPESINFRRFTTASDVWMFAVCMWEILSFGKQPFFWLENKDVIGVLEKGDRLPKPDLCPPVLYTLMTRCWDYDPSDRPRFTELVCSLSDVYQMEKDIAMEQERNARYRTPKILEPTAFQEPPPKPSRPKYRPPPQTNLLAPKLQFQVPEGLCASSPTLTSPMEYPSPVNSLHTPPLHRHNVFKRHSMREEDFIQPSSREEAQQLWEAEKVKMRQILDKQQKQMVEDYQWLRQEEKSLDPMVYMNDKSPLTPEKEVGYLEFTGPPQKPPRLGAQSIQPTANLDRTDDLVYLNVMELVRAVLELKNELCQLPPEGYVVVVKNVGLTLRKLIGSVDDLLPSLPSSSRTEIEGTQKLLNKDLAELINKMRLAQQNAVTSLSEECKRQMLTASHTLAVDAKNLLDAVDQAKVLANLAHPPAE
How it was run: as §1

[12] = molecular target: IKKβ(h) (Homo sapiens, UniProt O14920)
How it was run: as §1

[13] = molecular target: PKCβI(h) (Homo sapiens, UniProt P05771)
How it was run: as §1

[14] = molecular target: EGFR(T790M)(h) (Homo sapiens, UniProt P00533, T790M)
How it was run: as §1

[15] = molecular target: PI3 Kinase (p110α(E542K)/p85α)(h) (Homo sapiens, UniProt P42336, E542K)
How it was run: as §1

[16] = molecular target: WNK3(h) (Homo sapiens, UniProt Q9BYP7)
How it was run: as §1

[17] = molecular target: PRK2(h) (Homo sapiens, UniProt Q16513)
How it was run: as §1

[18] = molecular target: SAPK3(h) (Homo sapiens, UniProt P53778)
How it was run: as §1

[19] = molecular target: Fms(Y969C)(h) (Homo sapiens, UniProt P07333, Y969C)
How it was run: as §1

[20] = molecular target: EphA1(h) (Homo sapiens, UniProt P21709)
Sequence of EphA1(h) (P21709 26-976): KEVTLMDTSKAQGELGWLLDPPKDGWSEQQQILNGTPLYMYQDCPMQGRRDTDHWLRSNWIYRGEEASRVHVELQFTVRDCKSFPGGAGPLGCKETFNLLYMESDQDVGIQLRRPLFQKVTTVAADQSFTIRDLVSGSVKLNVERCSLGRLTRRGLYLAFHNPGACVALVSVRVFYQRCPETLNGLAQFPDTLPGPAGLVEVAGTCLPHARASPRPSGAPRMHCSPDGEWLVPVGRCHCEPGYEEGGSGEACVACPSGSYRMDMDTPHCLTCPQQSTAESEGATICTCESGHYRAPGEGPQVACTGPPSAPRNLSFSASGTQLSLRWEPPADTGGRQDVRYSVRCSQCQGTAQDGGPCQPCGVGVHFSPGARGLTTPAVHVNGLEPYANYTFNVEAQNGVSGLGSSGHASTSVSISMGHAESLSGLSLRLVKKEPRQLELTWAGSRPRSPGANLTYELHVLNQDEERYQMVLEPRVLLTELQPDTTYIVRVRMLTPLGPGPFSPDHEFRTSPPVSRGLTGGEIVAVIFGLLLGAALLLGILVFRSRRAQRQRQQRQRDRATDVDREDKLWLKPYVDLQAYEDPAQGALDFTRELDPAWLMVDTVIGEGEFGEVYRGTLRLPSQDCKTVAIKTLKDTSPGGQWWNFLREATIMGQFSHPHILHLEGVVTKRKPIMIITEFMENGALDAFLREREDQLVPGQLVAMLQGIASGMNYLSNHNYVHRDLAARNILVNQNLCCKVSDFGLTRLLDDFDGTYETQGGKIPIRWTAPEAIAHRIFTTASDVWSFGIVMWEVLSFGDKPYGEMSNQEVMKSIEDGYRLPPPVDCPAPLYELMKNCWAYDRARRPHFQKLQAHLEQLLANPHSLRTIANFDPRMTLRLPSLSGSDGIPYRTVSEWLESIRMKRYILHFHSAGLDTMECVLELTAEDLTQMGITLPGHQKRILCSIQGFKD
How it was run: as §1

[21] = molecular target: JAK2(h) (Homo sapiens, UniProt O60674)
How it was run: as §1

[22] = molecular target: Flt3(D835Y)(h) (Homo sapiens, UniProt P36888, D835Y)
How it was run: as §1

[23] = molecular target: NEK2(h) (Homo sapiens, UniProt P51955)
How it was run: as §1

[24] = molecular target: Mnk2(h) (Homo sapiens, UniProt Q9HBH9)
Sequence of Mnk2(h) (Q9HBH9 whole entry): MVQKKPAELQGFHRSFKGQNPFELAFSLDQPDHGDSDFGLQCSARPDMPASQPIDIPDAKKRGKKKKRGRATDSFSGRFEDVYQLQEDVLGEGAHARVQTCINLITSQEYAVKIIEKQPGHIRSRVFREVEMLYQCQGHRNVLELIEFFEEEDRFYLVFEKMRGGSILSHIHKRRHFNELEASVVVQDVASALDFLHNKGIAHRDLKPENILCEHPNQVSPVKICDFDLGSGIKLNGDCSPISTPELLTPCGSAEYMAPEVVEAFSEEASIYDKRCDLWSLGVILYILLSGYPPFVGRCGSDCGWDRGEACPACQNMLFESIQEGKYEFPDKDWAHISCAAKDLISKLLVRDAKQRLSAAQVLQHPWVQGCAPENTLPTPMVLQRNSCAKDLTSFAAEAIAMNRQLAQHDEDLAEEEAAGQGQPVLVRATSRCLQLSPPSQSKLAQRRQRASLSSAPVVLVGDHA
How it was run: as §1

[25] = molecular target: NEK11(h) (Homo sapiens, UniProt Q8NG66)
How it was run: as §1

[26] = molecular target: MLCK(h) (Homo sapiens, UniProt Q9H1R3)
How it was run: as §1

[27] = molecular target: MINK(h) (Homo sapiens, UniProt Q8N4C8)
Sequence of MINK(h) (Q8N4C8 whole entry): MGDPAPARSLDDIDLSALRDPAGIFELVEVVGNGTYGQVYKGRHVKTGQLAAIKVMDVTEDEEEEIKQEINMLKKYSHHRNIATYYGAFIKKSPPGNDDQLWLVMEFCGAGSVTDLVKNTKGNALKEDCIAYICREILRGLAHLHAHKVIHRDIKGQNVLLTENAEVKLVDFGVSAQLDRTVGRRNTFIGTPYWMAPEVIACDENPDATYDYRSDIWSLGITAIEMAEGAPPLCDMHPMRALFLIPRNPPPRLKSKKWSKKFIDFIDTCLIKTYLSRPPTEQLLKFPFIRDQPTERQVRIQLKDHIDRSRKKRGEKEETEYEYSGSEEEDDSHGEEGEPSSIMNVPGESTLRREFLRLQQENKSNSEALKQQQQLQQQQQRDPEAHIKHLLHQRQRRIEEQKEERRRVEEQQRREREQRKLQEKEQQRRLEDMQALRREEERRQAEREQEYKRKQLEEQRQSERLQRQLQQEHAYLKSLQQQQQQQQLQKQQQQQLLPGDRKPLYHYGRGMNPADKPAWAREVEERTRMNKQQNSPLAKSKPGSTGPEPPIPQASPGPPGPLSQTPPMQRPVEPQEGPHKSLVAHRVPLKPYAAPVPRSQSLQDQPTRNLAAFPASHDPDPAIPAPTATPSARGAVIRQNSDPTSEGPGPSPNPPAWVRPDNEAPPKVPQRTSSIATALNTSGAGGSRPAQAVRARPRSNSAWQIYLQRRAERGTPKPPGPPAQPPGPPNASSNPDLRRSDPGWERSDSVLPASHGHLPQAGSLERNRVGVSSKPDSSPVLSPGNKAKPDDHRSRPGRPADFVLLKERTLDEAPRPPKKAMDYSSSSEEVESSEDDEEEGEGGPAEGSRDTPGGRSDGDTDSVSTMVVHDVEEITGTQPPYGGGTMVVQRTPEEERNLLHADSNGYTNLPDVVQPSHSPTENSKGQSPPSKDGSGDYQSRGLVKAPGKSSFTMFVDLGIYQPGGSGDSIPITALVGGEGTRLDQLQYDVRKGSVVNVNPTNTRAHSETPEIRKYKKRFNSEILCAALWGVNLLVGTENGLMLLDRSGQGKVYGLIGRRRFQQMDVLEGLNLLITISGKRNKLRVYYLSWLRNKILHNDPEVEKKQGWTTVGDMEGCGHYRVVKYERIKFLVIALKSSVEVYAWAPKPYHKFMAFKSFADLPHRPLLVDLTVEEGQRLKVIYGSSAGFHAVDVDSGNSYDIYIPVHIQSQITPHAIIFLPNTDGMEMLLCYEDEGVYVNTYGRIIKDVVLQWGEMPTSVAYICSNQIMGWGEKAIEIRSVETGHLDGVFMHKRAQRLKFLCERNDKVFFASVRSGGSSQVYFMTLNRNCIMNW
How it was run: as §1

[28] = molecular target: MELK(h) (Homo sapiens, UniProt Q14680)
How it was run: as §1

[29] = molecular target: TGFBR1(h) (Homo sapiens, UniProt P36897)
How it was run: as §1

[30] = molecular target: Rsk3(h) (Homo sapiens, UniProt Q15349)
Sequence of Rsk3(h) (Q15349 whole entry): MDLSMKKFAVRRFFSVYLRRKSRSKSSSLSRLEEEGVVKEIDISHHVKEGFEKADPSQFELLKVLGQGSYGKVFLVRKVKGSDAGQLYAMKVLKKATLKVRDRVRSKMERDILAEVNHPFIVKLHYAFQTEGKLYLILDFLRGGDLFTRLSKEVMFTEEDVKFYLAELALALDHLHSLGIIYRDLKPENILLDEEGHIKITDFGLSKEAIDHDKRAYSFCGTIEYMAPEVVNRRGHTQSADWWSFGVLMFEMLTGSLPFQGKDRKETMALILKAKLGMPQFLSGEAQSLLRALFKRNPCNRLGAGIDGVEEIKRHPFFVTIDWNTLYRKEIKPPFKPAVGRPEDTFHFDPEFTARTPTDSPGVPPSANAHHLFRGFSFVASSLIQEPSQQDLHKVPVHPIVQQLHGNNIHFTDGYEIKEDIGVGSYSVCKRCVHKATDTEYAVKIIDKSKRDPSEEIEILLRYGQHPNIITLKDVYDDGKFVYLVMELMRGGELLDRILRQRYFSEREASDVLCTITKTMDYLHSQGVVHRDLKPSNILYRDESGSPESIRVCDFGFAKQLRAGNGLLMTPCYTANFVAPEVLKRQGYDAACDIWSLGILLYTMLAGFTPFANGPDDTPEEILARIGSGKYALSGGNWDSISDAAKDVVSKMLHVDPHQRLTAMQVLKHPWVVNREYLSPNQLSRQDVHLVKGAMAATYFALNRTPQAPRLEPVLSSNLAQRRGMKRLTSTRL
How it was run: as §1

[31] = molecular target: Met(Y1248H)(h) (Homo sapiens, UniProt P08581, Y1230H)
How it was run: as §1

Structure (SMILES)	inhibition at 0.1 µM [1]	inhibition at 0.1 µM [2]	inhibition at 0.1 µM [3]	inhibition at 0.1 µM [4]	inhibition at 0.1 µM [5]	inhibition at 0.1 µM [6]	inhibition at 0.1 µM [7]	inhibition at 0.1 µM [8]	inhibition at 0.1 µM [9]	inhibition at 0.1 µM [10]	inhibition at 0.1 µM [11]	inhibition at 0.1 µM [12]	inhibition at 0.1 µM [13]	inhibition at 0.1 µM [14]	inhibition at 0.1 µM [15]	inhibition at 0.1 µM [16]	inhibition at 0.1 µM [17]	inhibition at 0.1 µM [18]	inhibition at 0.1 µM [19]	inhibition at 0.1 µM [20]	other results
Cc1cc2c(F)c(Oc3nc(Nc4cc(C5CC5)[nH]n4)cc(N4CCN(C)CC4)n3)ccc2[nH]1 [Compound 10]	94%	-5%	68%	-16%	1%	24%	16%	22%	0%	84%	64%	1%	2%	17%	-1%	1%	51%	-4%	67%	78%	inhibition at 0.1 µM [21]: 92%; inhibition at 0.1 µM [22]: 99%; inhibition at 0.1 µM [23]: 6%; inhibition at 0.1 µM [24]: 1%; inhibition at 0.1 µM [25]: -8%; inhibition at 0.1 µM [26]: 0%; inhibition at 0.1 µM [27]: 7%; inhibition at 0.1 µM [28]: 69%; inhibition at 0.1 µM [29]: 66%; inhibition at 0.1 µM [30]: 63%; inhibition at 0.1 µM [31]: 69%
Cc1cc2c(F)c(Oc3nc(Nc4cc(C5CC5)[nH]n4)cc(N4CCNCC4)n3)ccc2[nH]1 [Compound 11, N-(5-cyclopropyl-1H-pyrazol-3-yl)-2-((4-fluoro-2-methyl-1H-indol-5-yl)oxy)-6-(piperazin-1-yl)pyrimidin-4-amine]	94%	8%	85%	10%	1%	22%	-14%	-17%	-11%	86%	63%	5%	5%	30%	0%	8%	51%	-24%	73%	92%	inhibition at 0.1 µM [21]: 99%; inhibition at 0.1 µM [22]: 101%; inhibition at 0.1 µM [23]: -7%; inhibition at 0.1 µM [24]: -2%; inhibition at 0.1 µM [25]: -6%; inhibition at 0.1 µM [26]: 0%; inhibition at 0.1 µM [27]: 31%; inhibition at 0.1 µM [28]: 87%; inhibition at 0.1 µM [29]: 47%; inhibition at 0.1 µM [30]: 63%; inhibition at 0.1 µM [31]: 91%
